Experimental data published in the NIST ThermoML archive (doi:10.1016/j.fluid.2005.05.015).
± gives the expanded uncertainty stated by the source.

Settings: Crystal 1; visual observation

CC[N+](C)(C)CCO.[Br-] [ethyl(2-hydroxyethyl)dimethylammonium bromide]
Normal melting temperature: 268.30 ± 1 °C
